Results taken from patent US7999002B2, “Use of N-(dibenz(b,f)oxepin-10-ylmethyl)-N-methyl-N-prop-2-ynylamine (omigapil) or a pharmaceutically acceptable addition salt thereof for the prophylaxis and/or treatment of muscular dystrophy” (Santhera Pharmaceuticals (Schweiz) AG, priority 2005, dated 2011).

What was measured:
[1] = biological target: glyceraldehyde-3-phosphate dehydrogenase (GAPDH) (Homo sapiens, UniProt P04406); settings: reported in J. Biol. Chem. 273:5821-5828; cited from earlier work
[2] = test system: homozygous dy^W/dy^W mice deficient in laminin-α2 expression; assay: Voluntary exploratory locomotory activity in a new cage (FIG. 6); assay type: in vivo, mouse; settings: dy^W/dy^W mice at 6 weeks of age; for locomotory activity in the 10-minute test period: vehicle 236 seconds, p-value<0.05
Procedure: The therapeutically relevant effect of N-(dibenz(b,f)oxepin-10-ylmethyl)-N-methyl-N-prop-2-ynylammonium maleate (omigapil) on the voluntary locomotion was tested in a mouse model for MDC1A deficient in laminin-α2 expression. Starting at day fifteen, homozygous dy^W/dy^W mice were treated with omigapil at doses of 0.1 or 1 mg/kg body weight. Their individual exploratory locomotory activity was assessed at 6 weeks of age and compared to age-matched dy^W/dy^W mice treated with vehicle only. The treatment regime was as described in example 1.
It can be concluded that omigapil increases locomotory activity in an animal model for muscular dystrophy caused by laminin α2-deficiency.
Newborn dy^W/dy^W mice were genotyped and randomly assigned to the vehicle or the 0.1 and 1 mg/kg omigapil groups. The voluntary locomotory activity was measured within the first 10 minutes after having placed the animal in a new cage. […] The difference in activity is statistically significant for both omigapil treatments (asterisk: p-value<0.05). In total 13, 15 and 10 animals were included into the vehicle, the 0.1 and the 1 mg/kg omigapil group, respectively.

[3] = test system: homozygous dy^W/dy^W mice deficient in laminin-α2 expression; assay: Body weight gain in mouse model for MDC1A (FIG. 2); assay type: in vivo; settings: vehicle maximally 11%
Procedure: Example 2 describes the therapeutically relevant effect of N-(dibenz(b,f)oxepin-10-ylmethyl)-N-methyl-N-prop-2-ynylammonium maleate (omigapil) on the body weight gain in a mouse model for MDC1A deficient in laminin-α2 expression. Starting at day fifteen, homozygous dy^W/dy^W mice were treated with omigapil. Their individual body weights were assessed daily and compared to homozygous dy^W/dy^W mice treated with vehicle only (control group). For this, omigapil was given to dy^W/dy^W-mice at doses of 0.1 or 1 mg/kg body weight, respectively. The treatment regime was as described in example 1.
Newborn dy^W/dy^W mice were genotyped and randomly assigned to the vehicle or the 0.1 and 1 mg/kg omigapil groups. The individual body weights were assessed daily and the mean body weight were calculated every week. The percentage of mice above an average body weight of twelve grams is shown grouped according to age (between 6 and 11 weeks) for each treatment group. In total 27, 34 and 25 animals were included into the vehicle, the 0.1 and the 1 mg/kg omigapil group, respectively.

[4] = test system: homozygous dy^W/dy^W mice deficient in laminin-α2 expression; assay: Survival rate in mouse model for MDC1A (Kaplan-Meier, FIG. 1); assay type: in vivo; settings: 0.1 mg/kg once daily (i.p., then gavage from 4th week), 1 out of 13 animals, vehicle 6 out of 15 (=40%)
Procedure: The effect of N-(dibenz(b,f)oxepin-10-ylmethyl)-N-methyl-N-prop-2-ynylammonium maleate (omigapil) on the survival rate was tested in a mouse model for MDC1A deficient in laminin-α2 expression. Starting at day fifteen, homozygous dy^W/dy^W mice were treated with omigapil. Their survival rate was compared to homozygous dy^W/dy^W mice treated with vehicle only. For this, omigapil was dissolved in 0.5% w/v ethanol to a final concentration of 20 μg/ml. The treatment regime was as follows: omigapil (20 μg/ml in 0.5% ethanol) was applied to 3 week old dy^W/dy^W-mice by intraperitoneal (i.p.) injection once per day; from the 4th week of age onwards mice received the same concentration of omigapil once per day by gavage feeding instead of i.p. application. The final dose of omigapil given to dy^W/dy^W-mice at all times was 0.1 mg/kg body weight, once daily following the guidance as described elsewhere (Sagot Y. et al. (2000)—An orally active anti-apoptotic molecule (CGP 3466B) preserves mitochondria and enhances survival in an animal model of motoneuron disease. Br. J. Pharmacol. 131:721-728). Control mice received the equivalent amount of vehicle only. […]

[5] = test system: homozygous dy^W/dy^W mice deficient in laminin-α2 expression; assay: Skeletal muscle apoptosis (TUNEL) in Triceps muscle (FIG. 3); assay type: in vivo, mouse; settings: dy^W/dy^W mice at 6 weeks of age, 0.1 mg/kg
Procedure: The effect of N-(dibenz(b,f)oxepin-10-ylmethyl)-N-methyl-N-prop-2-ynylammonium maleate (omigapil) on skeletal muscle apoptosis was tested in a mouse model for MDC1A deficient in laminin-α2 expression. Starting at day fifteen, homozygous dy^W/dy^W mice were treated with omigapil. The number of apoptotic myonuclei were analyzed and compared to the number of apoptotic myonuclei determined in homozygous dy^W/dy^W mice treated with vehicle only and to the number of apoptotic myonuclei determined in untreated wild-type mice. For this, omigapil was given to dy^W/dy^W-mice at a dose of 0.1 mg/kg body weight according to the treatment regime described in example 1. […]
Newborn dy^W/dy^W mice were genotyped and randomly assigned to the vehicle or omigapil group. The apoptotic myonuclei in the Triceps foreleg muscle were determined by counting muscle fibers positively stained for Terminal dUTP nick end labeling (TUNEL). […] The relative number of apoptotic myofibres was calculated by dividing the number of TUNEL positive myonuclei by the total number of myofibres. 7 animals were analyzed per treatment group. 1.1% of the myofibers in the Triceps muscle of the vehicle-treated dy^W/dy^W mice had apoptotic myonuclei at 6 weeks of age while only 0.7% apoptotic myofibres were detected in the omigapil-treated group. […]

[6] = test system: homozygous dy^W/dy^W mice deficient in laminin-α2 expression; assay: Muscle fiber size distribution in Triceps muscle (FIG. 4); assay type: in vivo, mouse; settings: dy^W/dy^W mice at 6 weeks of age, 0.1 mg/kg; vehicle 8%; p-value<0.05
Procedure: The effect of N-(dibenz(b,f)oxepin-10-ylmethyl)-N-methyl-N-prop-2-ynylammonium maleate (omigapil) on muscle fiber size distribution was tested in a mouse model for MDC1A deficient in laminin-α2 expression. Muscle fiber diameters were analyzed in Triceps muscle of 6 weeks old dy^W/dy^W mice treated with 0.1 mg/kg body weight omigapil or with vehicle only. The treatment regime was as described in example 1.
It can be concluded from this increase in large diameter myofibers that omigapil improves muscle histology in an animal model for muscular dystrophy caused by laminin α2-deficiency.
Newborn dy^W/dy^W mice were genotyped and randomly assigned to the vehicle or omigapil group. The myofiber diameters were measured following methods known to the skilled artist (Briguet, A., Courdier-Fruh, I., Foster, M., Meier, T., Magyar, J. P. (2004)—“Histological parameters for the quantitative assessment of muscular dystrophy in the mdx-mouse”, Neuromuscul Disord 14(10): 675-82). For each muscle all muscle fibers of one cross section were included into the analysis. 7 animals were analyzed per treatment group. 8% of the myofibers in the Triceps muscle of the vehicle-treated dy^W/dy^W mice had muscle diameters above 50 micrometers at 6 weeks of age while 15% of myofibres in the omigapil-treated group fulfilled this criteria. Asterisk: p-value<0.05.

[7] = test system: homozygous dy^W/dy^W mice deficient in laminin-α2 expression; assay: Skeletal deformation (kyphosis) by X-ray analysis and visual scoring (FIG. 5); assay type: in vivo, mouse; settings: dy^W/dy^W mice at 11 weeks of age, 1 mg/kg; example animal; vehicle 66°
Procedure: The beneficial and therapeutically relevant effect of N-(dibenz(b,f)oxepin-10-ylmethyl)-N-methyl-N-prop-2-ynylammonium maleate (omigapil) on the skeletal deformation (i.e. kyphosis) was tested in a mouse model for MDC1A deficient in laminin-α2 expression. For this, homozygous dy^W/dy^W mice were treated with omigapil (at a dose of 1 mg/kg body weight) and their kyphosis was scored at 11 weeks of age by visual inspection and X-ray analysis and compared to the extent of kyphosis seen in homozygous dy^W/dy^W mice treated with vehicle only and untreated wildtype mice. The treatment regime was as described in example 1.
Spinal deformation was documented by X-ray pictures of an age-matched wild-type mouse (A), a vehicle-treated (B) and an 1 mg/kg omigapil-treated dy^W/dy^W mouse (C). The kyphosis was quantified in living animals using a visual scoring system (1: barely detectable, 2: mild, 3: moderate, 4: severe) (D). 9 vehicle- and 7 omigapil-treated animals were analyzed.

glyceraldehyde-3-phosphate dehydrogenase (GAPDH), sequence (P04406 whole entry, species assumed): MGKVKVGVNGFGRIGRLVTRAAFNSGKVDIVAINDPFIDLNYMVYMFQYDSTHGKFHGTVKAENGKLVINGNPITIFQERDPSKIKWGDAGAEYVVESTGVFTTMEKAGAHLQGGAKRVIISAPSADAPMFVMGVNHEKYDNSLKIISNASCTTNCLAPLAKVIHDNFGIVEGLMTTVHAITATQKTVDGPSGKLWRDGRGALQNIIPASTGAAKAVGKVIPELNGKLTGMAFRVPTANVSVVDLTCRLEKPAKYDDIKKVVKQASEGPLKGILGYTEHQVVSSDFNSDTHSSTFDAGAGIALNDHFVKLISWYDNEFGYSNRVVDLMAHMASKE

Molecule | binding to GAPDH [1] | increase in locomotory activity compared to vehicle group ([2]; 0.1 mg/kg) | locomotory activity in the 10-minute test period ([2]; 0.1 mg/kg) | increase in locomotory activity compared to vehicle group ([2]; 1 mg/kg) | locomotory activity in the 10-minute test period ([2]; 1 mg/kg) | percentage of mice that reached a body weight above 12 grams within the first 11 weeks of age ([3]; 0.1 mg/kg omigapil) | percentage of mice that reached a body weight above 12 grams within the first 11 weeks of age ([3]; 1 mg/kg omigapil) | animals died within the first 80 days of age [4] | reduction in apoptotic myofibres compared to vehicle ([5]; Triceps muscle) | apoptotic myofibres in the Triceps muscle (TUNEL) ([5]; vehicle 1.1%) | myofibres with muscle fiber diameters above 50 micrometers in the Triceps muscle [6] | angle spanned by the spine (kyphosis, X-ray) [7]
C#CCN(C)CC1=Cc2ccccc2Oc2ccccc21 [compound of formula (I), N-(dibenz(b,f)oxepin-10-ylmethyl)-N-methyl-N-prop-2-ynylamine] | binds to glyceraldehyde-3-phosphate dehydrogenase (GAPDH) |  |  |  |  |  |  |  |  |  |  | 
N-(dibenz(b,f)oxepin-10-ylmethyl)-N-methyl-N-prop-2-ynylammonium maleate [omigapil] |  | 39% | 330 seconds | 26% | 301 seconds | 25% | 43% | 8% | 35% | 0.7% | 15% | 89 °
